From publication PMC5082338, “Different Culture Metabolites of the Red Sea Fungus Fusarium equiseti Optimize the Inhibition of Hepatitis C Virus NS3/4A Protease (HCV PR)” (Marine Drugs, 2016)
Values joined by “and” are separate entries in the source; they are usually repeats but may differ in a detail not shown here. Equal entries are not always repeated. Where two headings read alike, the source gives them in different places. Peptide text beside a SMILES is read from it.

Columns and labels:
HCV NS3/4A protease = HCV NS3/4A protease (Hepatitis C virus genotype 1b (strain HC-J4), UniProt O92972); assay: HCV protease inhibitory activity (SensoLyte 520 HCV protease assay kit, fluorimetric); format: biochemical; conditions: for Inhibition of HCV PR (in words): compared to other constituents; for IC50: recHCV PR, 37 °C, 30 min
Chain of HCV NS3/4A protease (O92972 1027-1207, other chains not shown): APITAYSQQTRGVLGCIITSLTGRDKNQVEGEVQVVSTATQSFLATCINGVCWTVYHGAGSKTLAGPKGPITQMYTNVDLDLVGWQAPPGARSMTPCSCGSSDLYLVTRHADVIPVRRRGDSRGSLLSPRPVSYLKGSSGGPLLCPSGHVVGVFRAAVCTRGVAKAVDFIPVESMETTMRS
From the text: HCV NS3 is considered as a serine protease, its active site contains serine 139 amino acid residues, which attack the substrate by forming a reversible covalent bond with its amino acid residues. To be activated, the HCV NS3 has to be coupled with an activating protein named (4A), and is therefore given the name HCV NS3/4A, which is active only in its heterodimer form. The culture extracts of the endophytic fungus F. equiseti and their isolated compounds were screened for inhibition of HCV protease using the hepatitis virus C NS3 protease inhibitor 2 as a positive control. Moreover, the selectivity of the active metabolites toward HCV NS3/4A protease (viral protease) and not human serine proteases such as trypsin and chymotrypsin has been confirmed through investigating the inhibitory activity of these extracts and/or their isolated chemical constituents on human recombinant Trypsin.
(§1) Sensolyte™ 520 HCV Protease assay kit Fluorimetric (cat#AS-71145), HCV NS3/4A protease and Sensolyte™, Green protease Assay Kit Fluorimetric (cat#AS-71124), and Hepatitis Virus C NS3 protease inhibitor 2 (cat#AS-25346) were purchased from AnaSpec Inc., San Jose, CA, USA. Chymotrypsin inhibitor (Soybean trypsin) was purchased from Sigma Aldrich Co. (St. Louis, MO, USA), and Becton Dickinson Falcon™ (Tokyo, Japan). Microtest 384-well 120 μL black assay plates, no lid, non-sterile, were purchased from Becton Dickinson Inc, Franklin Lakes, NJ, USA. Culture media: Czapek agar, bacteriological peptone, malt extract, yeast extract powder, nutrient agar and potato dextrose broth were procured from Lab M, Bury, UK; Glucose, (Acros Organics, Geel, Belgium), K2HPO4 (Laboratory Reagent, Mumbai, India), MgSO4 (Oxford Laboratory Reagent, Mumbai, India), agar (Sisco Research Laboratories Pvt. Ltd., Mumbai, India).
Samples of 2 μL of culture broth fungus extracts and isolated compounds dissolved in dimethyl sulfoxide (DMSO) were placed in each well of a 384-well microplate, then 8 μL of recHCV PR (0.5 μg/mL) were added, and the plate was briefly agitated. Finally, 10 μL of the freshly prepared substrate [Ac-Asp-Glu-Dap (QXLTM520)-Glu-Glu-Abu-COO-Ala-Ser-Cys(5-FAMsp)-NH2] were added with sequential rotational shaking. The reaction mixture was incubated at 37 °C for 30 min. The fluorimetric analyses were performed on an automated TECAN GENios plate reader (Männedorf, Switzerland) with excitation and emission wavelengths at 485 and 520 nm, respectively. Each sample was tested in triplicate. HCV PR inhibition (%) was calculated using the following equation: % Inhibition = (Fsubstrate − Ftestsample) × 100/Fsubstrate where Fsubstrate is the fluorescence of the enzyme and substrate only, and Ftestsample is the fluorescence of the assay mixture with the added sample.

Bacillus subtilis = assay: Antimicrobial activity, inhibition zone; format: cell-based
Bacillus megaterium = assay: Antimicrobial activity, inhibition zone; format: cell-based; conditions: Priestia megaterium; for zone of inhibition: read-out: Inhibition zone, Bacillus megaterium
From the text: Table 1 Antimicrobial potential of the culture extracts and isolated compounds from F. equiseti. | column: Gram-Positive Bacteria / Bacillus megaterium

Candida albicans = assay: Antimicrobial activity, inhibition zone; format: cell-based; conditions: oxytetracycline control 30 μg
[1] = biological target: T1, human recombinant Trypsin (Homo sapiens, UniProt P07477); assay: Green protease assay (trypsin inhibitory activity); format: biochemical; conditions: 37 °C, 30 min
T1 construct: purchased AnaSpec Inc., San Jose, CA, USA AS-71124 (Green protease Assay Kit; no catalogue number for trypsin itself)
Protocol: as §1, with “Chymotrypsin” for “Sensolyte™ 520 HCV Protease assay kit Fluorimetric (cat#AS-71145), HCV NS3/4A protease and Sensolyte™, Green protease Assay Kit Fluorimetric (cat#AS-71124), and Hepatitis Virus C NS3 protease inhibitor 2 (cat#AS-25346) were purchased from AnaSpec Inc., San Jose, CA, USA. Chymotrypsin”
Then 17.5 μL of assay buffer and 2.5 μL of trypsin (0.1 U/μL) were added and the plate was briefly agitated. […] The positive control was the soybean trypsin-chymotrypsin inhibitor. Inhibition was calculated as above for HCV PR assay.

Staphylococcus aureus = assay: Antimicrobial activity, inhibition zone; format: cell-based; conditions: for zone of inhibition: read-out: Inhibition zone, Staphylococcus aureus
From the text: Table 1 Antimicrobial potential of the culture extracts and isolated compounds from F. equiseti. | column: Gram-Positive Bacteria / Staphylococcus aureus

[2] = read-out: IC50 HCV Protease Inhibitory Activity
[3] = Bacillus subtilis, oxytetracycline control 30 μg

Molecule	IC50 (HCV NS3/4A protease; [2])	zone of inhibition (Bacillus subtilis; [3])	zone of inhibition (Bacillus megaterium; oxytetracycline control 30 μg)	zone of inhibition (Candida albicans)	IC50 [1]	zone of inhibition (Staphylococcus aureus; oxytetracycline control 30 μg)	further results
Cc1c[nH]c(=O)[nH]c1=O [compound 4, thymine]	51.8 ± 2.49 µM						Inhibition of HCV PR (in words) (HCV NS3/4A protease): inactive
CC(C)[C@@H]1NC(=O)[C@@H]2CCCN2C1=O [compound 2, cyclo(L-Pro-L-Val)]	23.2 µM and 23.3 µM	18 mm	11 mm	9 mm	54.2 ± 1.88 µM		Sensitivity of B. subtilis (in words) (Bacillus subtilis): highly sensitive
Nc1ncnc2c1ncn2[C@@H]1O[C@H](CO)C[C@H]1O [compound 17, cordycepin]	22.3 µM and 22.4 µM	9 mm	11 mm	14 mm	> 1000 µM	16 mm	
CN(C)[C@@H]1C(O)=C(C(N)=O)C(=O)[C@@]2(O)C(O)=C3C(=O)c4c(O)cccc4[C@@](C)(O)[C@H]3[C@H](O)[C@@H]12 [Oxytetracycline, reference compound]		18 mm	20 mm			17 mm	
COc1cc(O)c2c(=O)c3c(C)cc(O)cc3oc2c1 [compound 12, griseoxanthone C]	19.8 µM and 19.9 µM				51.3 µM		zone of inhibition at 30 µg/disc (Bacillus subtilis; [3]): 13 mm; zone of inhibition at 30 µg/disc (Bacillus megaterium; oxytetracycline control 30 μg): 10 mm
O=C1c2cc(O)cc(O)c2C(=O)c2c(O)cc(CO)cc21 [compound 14, ω-hydroxyemodin]	10.7 µM	9 mm	17 mm	18 mm	48.5 µM	12 mm	
CCO[C@@H]1O[C@H](CO)[C@@H](O)[C@H](O)[C@H]1O [compound 19, ethyl-O-β-glucoside]	> 1000 µM						
OCc1ccc(-c2nccc3c2[nH]c2ccccc23)o1 [compound 16, perlolyrin]	37.8 µM and 37.9 µM	8 mm	9 mm	10 mm	> 1000 µM	14 mm	
Cc1cc(O)c2c(c1)C(=O)c1cccc(O)c1C2=O [compound 13, chrysophanol]	> 1000 µM		10 mm	11 mm		15 mm	
CC1=C(O)C(=O)C(Cl)=C(O)C1=O [compound 11, 5-Chloro-3,6-dihydroxy-2-methyl-1,4-benzoquinone]	35.1 µM				294.8 ± 2.87 µM		
CC(C)CC1NC(=O)C2CCCN2C(=O)C(Cc2ccccc2)NC(=O)C2CCCN2C1=O (stereo not drawn) [compound 5, cyclo[Phenylalanyl-Pro-Leu-Pro]] (cyclo(FPLP); configuration not given here)	29.4 µM and 29.5 µM		10 mm	12 mm	226 ± 4.26 µM	9 mm	
O=C1N[C@H](Cc2ccc(O)cc2)C(=O)N2CCC[C@H]12 [compound 15, cyclo(L-Tyr-L-Pro)]	18.2 ± 1.7 µM				37.9 ± 3.8 µM		zone of inhibition at 30 µg/disc (Staphylococcus aureus; oxytetracycline control 30 μg): 11 mm; zone of inhibition at 30 µg/disc (Bacillus megaterium; oxytetracycline control 30 μg): 8 mm; zone of inhibition at 30 µg/disc (Candida albicans): 13 mm
CC(C)[C@@H](C)CC[C@@H](C)C1CCC2C3=CC=C4C[C@@H](O)CC[C@]4(C)C3CC[C@@]21C (stereo partly drawn) [compound 8, ergostra-5,7-dien-3β-ol]	77.1 ± 4.55 µM						Inhibition of HCV PR (in words) (HCV NS3/4A protease): inactive
CC(C)CC1NC(=O)C(C)NC1=O [compound 1, cyclo-L-Ala-L-Leu]	58.3 ± 3.51 µM						Inhibition of HCV PR (in words) (HCV NS3/4A protease): inactive; zone of inhibition at 30 µg/disc (Bacillus megaterium; oxytetracycline control 30 μg): 12 mm; zone of inhibition at 30 µg/disc (Candida albicans): 13 mm
Nc1ncnc2c1ncn2C1OC(CO)C(O)C1O (stereo not shown) [compound 18, ara-A]	24.5 µM	12 mm	12 mm		138 ± 2.49 µM	10 mm	
CC[C@@H](CC[C@@H](C)C1CCC2C3CC=C4C[C@@H](O[C@@H]5O[C@H](CO)[C@@H](O)[C@H](O)[C@H]5O)CC[C@]4(C)C3CC[C@@]21C)C(C)C (stereo partly drawn) [compound 9, β-sitosterol 3-O-β-glucoside]	76.6 ± 3.78 µM	11 mm	14 mm	10 mm		9 mm	Inhibition of HCV PR (in words) (HCV NS3/4A protease): inactive
CC(C=CC=C(C)C(O)C(C)C1CC(O)C(C)=CC=CC(C)C2CC(CC=CC(=O)O1)CC(=O)O2)=Cc1coc(C)n1 (stereo not shown) [compound 6, 17-demethyl-2,11-dideoxy-rhizoxin]				19 mm	145 ± 3.66 µM		zone of inhibition (Staphylococcus aureus): 12 mm; IC50 (HCV NS3/4A protease; IC50 HCV Protease Inhibitory Activity): 34.4 µM; zone of inhibition (Bacillus megaterium): 8 mm
T-I: soybean trypsin-chymotrypsin inhibitor (positive control for trypsin) (protein, mature limits and check) DDESSKPCCDQCACTKSNPPQCRCSDMRLNSCHSACKSCICALSYPAQCFCVDITDFCYEPCKPSEDDKEN					0.5 µM		
